Source: the supplement of paper PMC10307832

Columns and labels:
Assay in all cases: relative viability (nuclei count vs DMSO), 5 days (fraction); higher = more cells survive
[1] = system: LCLC-97TM1
How it was run: (§1)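 Nuclei were stained with Hoechst during a one-step fixation (final 0.05% Triton X-100, 1% formaldehyde, 1 ug/ml Hoechst) carried out 5 days after dosing, then counted on 4× images. The cells, lung cancer lines in 1536-well plates, had been dosed by pin tool the day after seeding with one drug alone or a fixed anchor-drug dose plus five library-drug doses (not always all listed) in √10 steps. Relative viability is the nuclei count in treated wells divided by that in vehicle wells, and each value is the median of duplicate plates.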

[2] = system: NCI-H460
How it was run: as §1

[3] = system: NCI-H520
How it was run: as §1

[4] = system: PC-3 [JPC-3]
How it was run: as §1

[5] = system: NCI-H322M
How it was run: as §1

[6] = system: NCI-H838
How it was run: as §1

[7] = system: NCI-H1915
How it was run: as §1

[8] = system: NCI-H1792
How it was run: as §1

[9] = system: EKVX
How it was run: as §1

[10] = system: NCI-H1437
How it was run: as §1

[11] = system: NCI-H1666
How it was run: as §1

[12] = system: SK-LU-1
How it was run: as §1

[13] = system: NCI-H1975
How it was run: as §1

[14] = system: NCI-H1650
How it was run: as §1

[15] = system: NCI-H647
How it was run: as §1

[16] = system: NCI-H727
How it was run: as §1

[17] = system: NCI-H441
How it was run: as §1

[18] = system: NCI-H23
How it was run: as §1

[19] = system: NCI-H596
How it was run: as §1

Cc1cn(-c2cc(NC(=O)c3ccc(C)c(Nc4nccc(-c5cccnc5)n4)c3)cc(C(F)(F)F)c2)cn1 [Nilotinib] + CC1(C)CCC(c2ccc(Cl)cc2)=C(CN2CCN(c3ccc(C(=O)NS(=O)(=O)c4ccc(N[C@H](CCN5CCOCC5)CSc5ccccc5)c(S(=O)(=O)C(F)(F)F)c4)cc3)CC2)C1 [Navitoclax] (partner 0.5 µM) showed a relative viability ([1]; first compound 0.001 µM) of 0.322, a relative viability ([1]; first compound 0.003162 µM) of 0.425 and a relative viability ([1]; first compound 0.01 µM) of 0.478. The relative viability ([1]; first compound 0.03162 µM) was 0.445, the relative viability ([1]; first compound 0.1 µM) was 0.379 and the relative viability ([2]; first compound 0.001 µM) was 1.02. For the same molecule, the relative viability ([2]; first compound 0.003162 µM) was 1.48, the relative viability ([2]; first compound 0.01 µM) was 1.76 and the relative viability ([2]; first compound 0.03162 µM) was 0.628. The relative viability ([2]; first compound 0.1 µM) was 0.975, the relative viability ([3]; first compound 0.001 µM) was 1.13 and the relative viability ([3]; first compound 0.01 µM) was 1.11. It also gave a relative viability ([3]; first compound 0.03162 µM) of 0.96, a relative viability ([3]; first compound 0.1 µM) of 1.15 and a relative viability ([4]; first compound 0.001 µM) of 0.699. For the same molecule, the relative viability ([4]; first compound 0.003162 µM) was 1, the relative viability ([4]; first compound 0.01 µM) was 0.888 and the relative viability ([4]; first compound 0.03162 µM) was 0.666. For the same molecule, the relative viability ([4]; first compound 0.1 µM) was 0.741, the relative viability ([5]; first compound 0.001 µM) was 1.09 and the relative viability ([5]; first compound 0.003162 µM) was 1.51. For the same molecule, the relative viability ([5]; first compound 0.03162 µM) was 0.954, the relative viability ([5]; first compound 0.1 µM) was 1.16 and the relative viability ([6]; first compound 0.001 µM) was 1.09. The relative viability ([6]; first compound 0.003162 µM) was 1.42, the relative viability ([6]; first compound 0.01 µM) was 1.54 and the relative viability ([6]; first compound 0.03162 µM) was 1.05. It also gave a relative viability ([6]; first compound 0.1 µM) of 1.15, a relative viability ([7]; first compound 0.001 µM) of 0.764 and a relative viability ([7]; first compound 0.003162 µM) of 0.813. The relative viability ([7]; first compound 0.01 µM) was 0.807, the relative viability ([7]; first compound 0.03162 µM) was 0.751 and the relative viability ([7]; first compound 0.1 µM) was 0.781. The relative viability ([8]; first compound 0.001 µM) was 0.523, the relative viability ([8]; first compound 0.01 µM) was 0.907 and the relative viability ([8]; first compound 0.1 µM) was 0.794. The relative viability ([9]; first compound 0.001 µM) was 0.795, the relative viability ([9]; first compound 0.003162 µM) was 1.29 and the relative viability ([9]; first compound 0.01 µM) was 1.42. The relative viability ([9]; first compound 0.03162 µM) was 0.764, the relative viability ([9]; first compound 0.1 µM) was 1.21 and the relative viability ([10]; first compound 0.001 µM) was 1.02. For the same molecule, the relative viability ([10]; first compound 0.003162 µM) was 1.34, the relative viability ([10]; first compound 0.01 µM) was 1.15 and the relative viability ([10]; first compound 0.03162 µM) was 0.766. It also gave a relative viability ([10]; first compound 0.1 µM) of 0.925, a relative viability ([11]; first compound 0.001 µM) of 0.994 and a relative viability ([11]; first compound 0.003162 µM) of 1.24. The relative viability ([11]; first compound 0.01 µM) was 0.98, the relative viability ([11]; first compound 0.03162 µM) was 0.895 and the relative viability ([11]; first compound 0.1 µM) was 0.759. For the same molecule, the relative viability ([12]; first compound 0.001 µM) was 0.703, the relative viability ([12]; first compound 0.003162 µM) was 1.17 and the relative viability ([12]; first compound 0.01 µM) was 1.14. The relative viability ([12]; first compound 0.03162 µM) was 0.582, the relative viability ([12]; first compound 0.1 µM) was 0.827 and the relative viability ([13]; first compound 0.001 µM) was 0.904. The relative viability ([13]; first compound 0.003162 µM) was 1.22, the relative viability ([13]; first compound 0.01 µM) was 1.34 and the relative viability ([13]; first compound 0.03162 µM) was 0.694. It also gave a relative viability ([13]; first compound 0.1 µM) of 0.976, a relative viability ([14]; first compound 0.001 µM) of 1.15 and a relative viability ([14]; first compound 0.003162 µM) of 1.26. The relative viability ([14]; first compound 0.01 µM) was 1.45, the relative viability ([14]; first compound 0.03162 µM) was 0.99 and the relative viability ([14]; first compound 0.1 µM) was 1.11. It also gave a relative viability ([15]; first compound 0.001 µM) of 0.952, a relative viability ([15]; first compound 0.003162 µM) of 1.42 and a relative viability ([15]; first compound 0.01 µM) of 1.26. For the same molecule, the relative viability ([15]; first compound 0.03162 µM) was 0.997, the relative viability ([15]; first compound 0.1 µM) was 0.974 and the relative viability ([16]; first compound 0.001 µM) was 0.478. It also gave a relative viability ([16]; first compound 0.01 µM) of 0.386, a relative viability ([16]; first compound 0.03162 µM) of 0.385 and a relative viability ([16]; first compound 0.1 µM) of 0.253. The relative viability ([17]; first compound 0.001 µM) was 0.499, the relative viability ([17]; first compound 0.003162 µM) was 0.667 and the relative viability ([17]; first compound 0.01 µM) was 0.568. For the same molecule, the relative viability ([17]; first compound 0.1 µM) was 0.493, the relative viability ([18]; first compound 0.001 µM) was 0.78 and the relative viability ([18]; first compound 0.003162 µM) was 0.839. The relative viability ([18]; first compound 0.01 µM) was 1.09, the relative viability ([18]; first compound 0.03162 µM) was 0.605 and the relative viability ([18]; first compound 0.1 µM) was 0.721. For the same molecule, the relative viability ([19]; first compound 0.001 µM) was 0.924, the relative viability ([19]; first compound 0.003162 µM) was 1.12 and the relative viability ([19]; first compound 0.01 µM) was 1.13. The relative viability ([19]; first compound 0.03162 µM) was 0.673 and the relative viability ([19]; first compound 0.1 µM) was 0.922.
